Test results taken from PubChem BioAssay (NCI).
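Following 48 hours of exposure in 96-well plates, responses at five concentrations were used to interpolate endpoints linearly. GI50 = concentration required for 50% inhibition of growth. TGI denotes the concentration required for complete inhibition of growth.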

How the values were obtained:
Experiment in all cases: growth of human tumour cells (NCI), 48 h; in the data active = GI50 below about 0.43 µM; inactive = the rest
[1] = system: 786-0 renal
[2] = system: A498 renal
[3] = system: A549 NSCLC
[4] = system: ACHN renal
[5] = system: CAKI-1 renal
[6] = system: CCRF-CEM leukemia
[7] = system: COLO 205 colon
[8] = system: DLD-1 colon
[9] = system: DMS 114 small cell lung
[10] = system: DMS 273 small cell lung
[11] = system: EKVX NSCLC
[12] = system: HCC-2998 colon
[13] = system: HCT-116 colon
[14] = system: HCT-15 colon
[15] = system: HL-60(TB) leukemia
[16] = system: HOP-18 NSCLC
[17] = system: HOP-62 NSCLC
[18] = system: HOP-92 NSCLC
[19] = system: HT29 colon
[20] = system: IGROV1 ovarian
[21] = system: K-562 leukemia
[22] = system: KM12 colon
[23] = system: KM20L2 colon
[24] = system: LOX IMVI melanoma
[25] = system: LXFL 529 NSCLC
[26] = system: M14 melanoma
[27] = system: M19-MEL melanoma
[28] = system: MALME-3M melanoma
[29] = system: MOLT-4 leukemia
[30] = system: NCI-H226 lung
[31] = system: NCI-H23 lung
[32] = system: NCI-H460 lung
[33] = system: NCI-H522 lung
[34] = system: OVCAR-3 ovarian
[35] = system: OVCAR-4 ovarian
[36] = system: OVCAR-5 ovarian
[37] = system: OVCAR-8 ovarian
[38] = system: RPMI-8226 leukemia
[39] = system: RXF 393 renal
[40] = system: SF-268 CNS
[41] = system: SF-295 CNS
[42] = system: SF-539 CNS
[43] = system: SK-MEL-2 melanoma
[44] = system: SK-MEL-28 melanoma
[45] = system: SK-MEL-5 melanoma
[46] = system: SK-OV-3 ovarian
[47] = system: SN12C renal
[48] = system: SNB-19 CNS
[49] = system: SNB-75 CNS
[50] = system: SNB-78 CNS
[51] = system: SR leukemia
[52] = system: SW-620 colon
[53] = system: TK-10 renal
[54] = system: U251 CNS
[55] = system: UACC-257 melanoma
[56] = system: UACC-62 melanoma
[57] = system: UO-31 renal
[58] = system: XF 498 CNS
[59] = system: RXF-631 renal

O=[N+]([O-])c1ccc(-n2nnc(C3=NCCN3)c2-c2ccc(Cl)cc2)cc1
> 100 µM: TGI [1] | TGI [2] | TGI [3] | TGI [4] | TGI [5] | TGI [6] | TGI [7] | TGI [8] | TGI [9] | TGI [10] | TGI [11] | TGI [12] | TGI [13] | TGI [14] | TGI [15] | TGI [16] | TGI [17] | TGI [18] | TGI [19] | TGI [20] | TGI [21] | TGI [22] | TGI [23] | TGI [24] | TGI [25] | TGI [26] | TGI [27] | TGI [28] | TGI [29] | TGI [30] | TGI [31] | TGI [32] | TGI [33] | TGI [34] | TGI [35] | TGI [36] | TGI [37] | TGI [38] | TGI [39] | TGI [40] | TGI [41] | TGI [42] | TGI [43] | TGI [44] | TGI [45] | TGI [46] | TGI [47] | TGI [48] | TGI [49] | TGI [50] | TGI [51] | TGI [52] | TGI [53] | TGI [54] | TGI [55] | TGI [56] | TGI [57] | TGI [58]

COC(=O)CN(C)P(=O)(N1CC1)N1CC1
> 100 µM: TGI [3] | TGI [4] | TGI [5] | TGI [6] | TGI [7] | TGI [8] | TGI [9] | TGI [10] | TGI [11] | TGI [12] | TGI [14] | TGI [15] | TGI [19] | TGI [20] | TGI [21] | TGI [22] | TGI [23] | TGI [24] | TGI [25] | TGI [26] | TGI [28] | TGI [29] | TGI [31] | TGI [33] | TGI [35] | TGI [36] | TGI [37] | TGI [38] | TGI [39] | TGI [59] | TGI [40] | TGI [41] | TGI [42] | TGI [43] | TGI [44] | TGI [45] | TGI [46] | TGI [47] | TGI [48] | TGI [49] | TGI [50] | TGI [52] | TGI [53] | TGI [54] | TGI [55] | TGI [56] | TGI [57]

COc1cccc(/C=N/[N-]C(=O)c2ccncc2)c1[O-].[Cu+2].[OH3+]
92 µM: TGI [51]
> 100 µM: TGI [1] | TGI [2] | TGI [3] | TGI [4] | TGI [5] | TGI [6] | TGI [7] | TGI [8] | TGI [9] | TGI [10] | TGI [11] | TGI [12] | TGI [14] | TGI [16] | TGI [18] | TGI [19] | TGI [20] | TGI [21] | TGI [22] | TGI [23] | TGI [24] | TGI [25] | TGI [26] | TGI [27] | TGI [28] | TGI [29] | TGI [30] | TGI [31] | TGI [32] | TGI [34] | TGI [35] | TGI [36] | TGI [37] | TGI [38] | TGI [40] | TGI [41] | TGI [43] | TGI [44] | TGI [45] | TGI [47] | TGI [48] | TGI [49] | TGI [50] | TGI [52] | TGI [53] | TGI [54] | TGI [55] | TGI [56] | TGI [57] | TGI [58]
82 µM: TGI [46]
86.4 µM: TGI [17]
76.8 µM: TGI [42]
inactive: GI50 [1] 63.4 µM | GI50 [2] 58.4 µM | GI50 [3] 53.7 µM | GI50 [4] 90.8 µM | GI50 [5] > 100 µM | GI50 [6] 27.9 µM | GI50 [7] 78.4 µM | GI50 [8] 52.6 µM | GI50 [9] 71.1 µM | GI50 [10] 48.2 µM | GI50 [11] 58 µM | GI50 [12] > 100 µM | GI50 [13] 23.8 µM | GI50 [14] 62.8 µM | GI50 [15] 23 µM | GI50 [16] > 100 µM | GI50 [17] 15.7 µM | GI50 [18] > 100 µM | GI50 [19] 43.8 µM | GI50 [20] 38.7 µM | GI50 [21] 33.6 µM | GI50 [22] > 100 µM | GI50 [23] 47.9 µM | GI50 [24] > 100 µM | GI50 [25] 57.7 µM | GI50 [26] 61.3 µM | GI50 [27] > 100 µM | GI50 [28] > 100 µM | GI50 [29] 35.2 µM | GI50 [30] > 100 µM | GI50 [31] 34.1 µM | GI50 [32] 28.7 µM | GI50 [34] 33.7 µM | GI50 [35] 78.6 µM | GI50 [36] > 100 µM | GI50 [37] 22 µM | GI50 [38] > 100 µM | GI50 [40] 28 µM | GI50 [41] > 100 µM | GI50 [42] 18.2 µM | GI50 [43] > 100 µM | GI50 [44] > 100 µM | GI50 [45] 74.3 µM | GI50 [46] 15.1 µM | GI50 [47] 49.7 µM | GI50 [48] > 100 µM | GI50 [49] 28.6 µM | GI50 [50] > 100 µM | GI50 [51] 26.9 µM | GI50 [52] 48.2 µM | GI50 [53] > 100 µM | GI50 [54] 20.5 µM | GI50 [55] > 100 µM | GI50 [56] 28.9 µM | GI50 [57] 45.5 µM | GI50 [58] > 100 µM
93.9 µM: TGI [13]
53.7 µM: TGI [15]
